This is an account of results in publication PMC10023787, “Trio-pharmacophore DNA-encoded chemical library for simultaneous selection of fragments and linkers” (Nature Communications, 2023).

SMILES strings stand for the structures.

The target of one experiment is T1, MMP-2 (Homo sapiens, UniProt P08253).
T1 construct: purchased Sino Biological 10082-HNAH
T1 sequence (P08253 110-660): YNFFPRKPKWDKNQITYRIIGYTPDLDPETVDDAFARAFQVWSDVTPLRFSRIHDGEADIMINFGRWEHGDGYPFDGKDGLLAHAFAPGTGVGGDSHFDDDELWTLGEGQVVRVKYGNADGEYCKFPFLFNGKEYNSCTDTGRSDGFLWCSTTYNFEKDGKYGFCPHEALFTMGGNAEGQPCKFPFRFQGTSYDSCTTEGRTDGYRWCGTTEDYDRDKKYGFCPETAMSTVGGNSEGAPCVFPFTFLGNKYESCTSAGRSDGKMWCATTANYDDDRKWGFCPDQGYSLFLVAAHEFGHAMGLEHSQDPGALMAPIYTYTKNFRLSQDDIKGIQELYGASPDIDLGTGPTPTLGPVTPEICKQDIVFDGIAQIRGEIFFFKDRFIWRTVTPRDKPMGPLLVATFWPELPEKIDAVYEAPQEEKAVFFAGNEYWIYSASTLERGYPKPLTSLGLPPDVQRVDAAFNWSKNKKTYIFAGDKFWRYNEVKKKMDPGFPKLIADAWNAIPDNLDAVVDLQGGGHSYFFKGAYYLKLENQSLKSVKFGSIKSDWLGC
Description: Dynamic dual-pharmacophore DEL selection against MMP-2, NGS decoding. It counts as binding. To be noted: for MMP2 3L Enrichment Fold: 3L library (Supplementary fig 13); for MMP2 3L Count: 3L library; for MMP2 3L Count / MMP2 5L Count: sequence count (Supplementary fig 13); for MMP2 5L Enrichment Fold: 5L library (Supplementary fig 13); for MMP2 5L Count: 5L library. An excerpt: (§1) Matrix metalloproteinases (MMPs) are zinc-dependent endopeptidases capable of degrading and remodeling extracellular matrix components[46],[47]. They are attractive therapeutic targets as high expression levels were detected in various diseases, such as inflammatory diseases, and at different stages of cancers, including metastasis, invasion, and angiogenesis[47]–[53]. As shown in Supplementary Fig. 3c, we performed selections against the two gelatinases (human MMP-2 and human MMP-9) to identify binding fragments for later design and synthesis of small molecule inhibitors. After selection, the three sub-libraries were decoded, and the enrichment was calculated by dividing the post-selection fraction (count/total counts) by the pre-selection fraction (Fig. 4a and Supplementary Fig. 13).
(§2) 4 µg of MMP-2/MMP-9 was dissolved in 100 µl of selection buffer containing 25 mM Tris-base, 10 mM CaCl2, 150 mM NaCl, 0.05% Tween 20, pH 7.5. 10 µl of 4-Aminophenylmercuric acetate (APMA) (100 mM) solution was added to the protein solution and incubated at 37 °C for 1 h. After activation, the solution was added on top of 40 µl pre-washed Ni-NTA resin and incubated for 30 min on a rotary shaker. The supernatant was discarded, and the resin was washed three times with the selection buffer.
(§3) For each independent selection, three sub-libraries were mixed in the selection buffer with a final concentration of 40 nM of each sub-library in 100 µl. The mixture was heat denatured at 90 °C for 1 min and slowly cooled down to allow the formation of the trio-pharmacophore library. The dynamic dual-pharmacophore DEL was provided by DyNAbind GmbH (Merck, DYNA001).
(§4) The assembled library was incubated with the protein-bound solid support for 2 h at RT on a rotary shaker. In parallel, selection on bare solid support served as the negative control to exclude promiscuous binders on the resin. After panning, the supernatant was discarded, and the resin was washed three times with 1 ml selection buffer. Finally, 100 µl of 50 mM Tris buffer, pH 7.4 was added to resuspend the resin and the resin was incubated at 95 °C for 5 min to denature the protein, release, and collect the bound library members.
(§5) The eluted library members were subjected to sample preparation for NGS. NGS preparation was achieved by two-step PCR. First, the individual selection was indexed using primers containing unique sequences corresponding to each selection. The amplified product was purified from 2% agarose gel. Second, the purified DNA from all selections were pooled in equal amount and subjected to the 2nd PCR step to attach sequences compatible with the NGS flow cell and the sequencing primers. NGS was performed by Novogene UK with Novaseq 6000. Raw data files (fastq files) obtained were decoded using a custom python script and excel. The sequence reads corresponding to each sample was retrieved by searching for the correct index unique to each selection. Then, the code region was extracted from each sequence and assigned to the corresponding identity. The count of each code in each selection sample was obtained by looping through the total reads and counting the occurrence of each code. The enrichment fold of each compound was calculated by first, dividing the count by the total count to get the abundance, second, the abundance after the selection was divided by the abundance of pre-selection to reflect the distribution change of the compound. Next, the enrichment fold was plotted against the count for each member of the library to give the scatter plots as in Fig. 4.

In a further experiment the target is T2, MMP-9 (Homo sapiens, UniProt P14780).
T2 construct: purchased Sino Biological 10327-HNAH
T2 sequence (P14780 107-707 limits assumed): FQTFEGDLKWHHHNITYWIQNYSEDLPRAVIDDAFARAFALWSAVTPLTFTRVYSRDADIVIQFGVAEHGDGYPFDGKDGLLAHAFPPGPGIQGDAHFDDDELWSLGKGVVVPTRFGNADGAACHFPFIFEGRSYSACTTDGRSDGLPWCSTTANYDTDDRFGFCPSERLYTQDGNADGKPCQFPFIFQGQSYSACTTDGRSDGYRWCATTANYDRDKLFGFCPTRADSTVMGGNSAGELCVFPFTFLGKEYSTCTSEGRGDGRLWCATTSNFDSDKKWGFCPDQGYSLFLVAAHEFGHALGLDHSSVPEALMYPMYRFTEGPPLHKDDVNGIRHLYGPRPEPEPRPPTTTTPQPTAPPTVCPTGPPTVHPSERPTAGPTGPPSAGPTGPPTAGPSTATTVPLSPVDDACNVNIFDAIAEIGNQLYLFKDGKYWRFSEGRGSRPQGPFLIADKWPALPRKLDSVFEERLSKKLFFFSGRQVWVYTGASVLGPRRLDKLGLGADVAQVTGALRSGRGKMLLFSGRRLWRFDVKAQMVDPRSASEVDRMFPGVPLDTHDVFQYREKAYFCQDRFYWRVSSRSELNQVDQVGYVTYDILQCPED
Description: Dynamic dual-pharmacophore DEL selection against MMP-9, NGS decoding. It counts as binding. To be noted: for MMP9 3L Enrichment Fold: 3L library (Supplementary fig 13); for MMP9 3L Count: 3L library; for MMP9 3L Count / MMP9 5L Count: sequence count (Supplementary fig 13); for MMP9 5L Enrichment Fold: 5L library (Supplementary fig 13); for MMP9 5L Count: 5L library.
Text: as §1, §2, §3, §4, §5

Where [1] appears, read: MMP2 3L (3' sub-library members).
Setting [2] is: MMP2 3L (3' sub-library members), NGS sequence count after selection.

For `Cc1cc(=O)[nH]c(-n2nc(C)c(CCC(=O)O)c2C)n1` [Compound 693], at MMP-2 (MMP2 selection), the “MMP2 3L Enrichment Fold” value came to 0.8647, the “MMP2 3L Count” value came to 991, the “MMP2 5L Enrichment Fold” value turned out to be 3.023 and the “MMP2 5L Count” value was 6628. On MMP-9 (MMP9 selection), the “MMP9 3L Enrichment Fold” value is recorded as 1.167, the “MMP9 3L Count” value was determined as 1032, the “MMP9 5L Enrichment Fold” value was determined as 4.572 and the “MMP9 5L Count” value is on record as 8985.
`O=C(O)Cn1cnc2c(oc3ccccc32)c1=O` [Compound 182]: the “Enrichment Fold” value at MMP-2 (MMP2 selection, 3L sub-library) was 1.088; at MMP-2 (MMP2 selection, 5L sub-library), 1.688; at MMP-9 (MMP9 selection, 3L sub-library), 0.7692; at MMP-9 (MMP9 selection, 5L sub-library), 1.565. Further, the Count on MMP-2 (MMP2 selection, 3L sub-library, sequence count per compound ID) was determined as 1179; at MMP-2 (MMP2 selection, 5L sub-library, sequence count per compound ID), 5803; at MMP-9 (MMP9 selection, 3L sub-library, sequence count per compound ID), 816; at MMP-9 (MMP9 selection, 5L sub-library, sequence count per compound ID), 4821.
With `Cn1c(O)nc2cc(C(=O)O)cnc21` [Compound 826], at MMP-2 (setting [1]), the “Enrichment Fold” value is 11.3583. For the same molecule, the Count on MMP-2 (setting [2]) came out at 12779. At MMP-2 (MMP2 selection), the “MMP2 5L Enrichment Fold” value was determined as 2.035 and the “MMP2 5L Count” value is recorded as 2158. On MMP-9 (MMP9 selection), the “MMP9 3L Enrichment Fold” value is reported as 4.359, the “MMP9 3L Count” value was determined as 10836, the “MMP9 5L Enrichment Fold” value worked out at 1.703 and the “MMP9 5L Count” value was 1619.
Consider `O=C(O)c1cncc(O)c1` [Compound 828], for which the results for the “Enrichment Fold” value on MMP-2 (setting [1]) and at MMP-9 (MMP9 3L (3' sub-library members)) were 6.248 and 10.2969, respectively. Besides, the Count at MMP-2 (setting [2]) is listed as 14566; at MMP-9 (MMP9 3L (3' sub-library members), NGS sequence count after selection) it was 32127.
As to `O=C(O)CNC(=O)NC12CC3CC(CC(C3)C1)C2` [Compound 66], the “Enrichment Fold” value at MMP-2 (MMP2 selection, 3L sub-library) is given as 1.69; on MMP-2 (MMP2 selection, 5L sub-library), 1.932; on MMP-9 (MMP9 selection, 3L sub-library), 0.3958; on MMP-9 (MMP9 selection, 5L sub-library), 1.238. Also, the Count is given as 477 on MMP-2 (MMP2 selection, 3L sub-library, NGS sequence count); 4327 on MMP-2 (MMP2 selection, 5L sub-library, NGS sequence count); 87 on MMP-9 (MMP9 selection, 3L sub-library, NGS sequence count); 2487 on MMP-9 (MMP9 selection, 5L sub-library, NGS sequence count).
`NCc1c[nH]nn1` [Compound 787]: at MMP-2 (MMP2 selection), the “MMP2 3L Enrichment Fold” value is on record as 3.194, the “MMP2 3L Count” value is 2558, the “MMP2 5L Enrichment Fold” value came out at 0.7494 and the “MMP2 5L Count” value came to 713. For the same molecule, at MMP-9 (MMP9 selection), the “MMP9 3L Enrichment Fold” value turned out to be 3.649, the “MMP9 3L Count” value is 3684, the “MMP9 5L Enrichment Fold” value turned out to be 0.7364 and the “MMP9 5L Count” value is given as 628.
